{
  "source": "patent US20030124636A1",
  "about": "“Individualization of therapy with antiarrhythmics” (McGill University, priority 2001, published 2003)",
  "key": {"AAMU-Ab": {"test_system": "AAMU-Ab", "experiment": "Competitive antigen ELISA, cross-reactivity of AAMU-Ab", "type": "binding, rabbit", "conditions": "0 = absence of inhibition or inhibition no higher than 40% at highest concentration tested (5 × 10^−3 M)", "description": "(§1) Buffers and water without additives are filtered through millipore filters and kept for 1 week. BSA, antibodies, Tween™ 20 and horse radish peroxidase conjugates are added to these buffers and water just prior to use. Urine samples are usually collected 4 hours after drinking a cup of coffee (instant or brewed with approximately 100 mg of caffeine per cup) and stored at −80° C. The urine samples are diluted 10 times with sodium phosphate buffer (620 mosm, pH 7.50) and are subsequently diluted with water to give concentrations of AAMU and 1X no higher than 3×10^−6 M in the ELISA. All the pipettings are done with an eight-channel pipette, except those of the antibody and sample solutions. Starting with the last well, 100 μL of a carbonate buffer (100 mM, pH 9.6) containing 2.5 μg mL^−1 antibodies are added to each well. After 90 min. at room temperature, the wells are washed three times with […] of TPB: isotonic sodium phosphate buffer (310 mosm, pH 7.50) containing 0.05% Tween™ 20.\n(§2) After the initial wash, unoccupied sites are blocked by incubation for 90 min. at room temperature with 100 μL TBP containing 3% BSA. The wells are washed four times with 100 μL TPB. […] The microplate is gently shaken with an orbital shaker at room temperature for 3-4 hours. The wells are washed three times with 100 μL TPB containing 1% BSA and three times with water containing 0.05% Tween™20. To the washed plate is added 150 μL of a substrate buffer composed of citric acid (25 mM) and sodium phosphate dibasic buffer (50 mM, pH 5.0) containing 0.06% hydrogen peroxide and 0.04% o-phenylenediamine hydrochloride.\n(§3) Buffers and water without additives were filtered through millipore filters and kept for 1 week. BSA, antibodies, Tween™20 and horse radish peroxidase conjugates were added to these buffers and water just prior to use. Urine samples were usually collected 4 hours after drinking a cup of coffee (instant or brewed with approximately 100 mg of caffeine per cup) and stored at −80° C. They were diluted 10 times with sodium phosphate buffer (620 mosm, pH 7.50) and were subsequently diluted with water to give concentrations of AAMU and 1X no higher than 3×10^−6 M in the ELISA. All the pipettings were done with an eight-channel pipette, except those of the antibody and sample solutions. Starting with the last well, 100 μL of a carbonate buffer (100 mM, pH 9.6) containing 2.5 μg mL^−1 antibodies was pipetted. After 90 min. at room temperature, the wells were washed three times with 100 μL of TPB: isotonic sodium phosphate buffer (310 mosm, pH 7.50) containing 0.05% Tween™ 20.\n(§4) After the initial wash, unoccupied sites were blocked by incubation for 90 min. at room temperature with 100 μL TBP containing 3% BSA. The wells were washed four times with 100 μL TPB. […] The microplate was gently shaken with an orbital shaker at room temperature for 3-4 hours. The wells were washed three times with 100 μL with TPB containing 1% BSA and three times with water containing 0.05% Tween™ 20. To the washed plate was added 150 μL of a substrate buffer composed of citric acid (25 mM) and sodium phosphate dibasic buffer (50 mM, pH 5.0) containing 0.06% hydrogen peroxide and 0.04% o-phenylenediamine hydrochloride. After 20 min. at room temperature with shaking, the reaction was stopped with 50 μL of 2.5 N HCl.\n(§5) The cross reactivities of AAMU-Ab and 1X-Ab were tested using a wide variety of caffeine metabolites and structural analogs (Table 2 below)."}, "1X-Ab": {"test_system": "1X-Ab", "experiment": "Competitive antigen ELISA, cross-reactivity of 1X-Ab", "type": "binding, rabbit", "conditions": "0 = absence of inhibition or inhibition no higher than 40% at highest concentration tested (5 × 10^−3 M)", "description": "as §1, §2, §3, §4, §5"}, "[1]": {"conditions": "cited from earlier work"}},
  "note": "Read-outs that look alike come from different tables or passages of the source. Marks after values point to notes of the source that are not given here.",
  "data": [
    {"smiles": "Cn1c(=O)c2c(ncn2C)n(C)c1=O", "note": "[1,3,7-Trimethyl Xanthine (Caffeine), 1,3,7-Trimethyl Xanthine]", "values": [
      {"measurement": "% Cross-Reaction AAMU-Ab", "setting": "AAMU-Ab", "value": 0, "unit": "%"},
      {"measurement": "% Cross-Reaction 1X-Ab", "setting": "1X-Ab", "value": 0, "unit": "%"}
    ]},
    {"smiles": "Cn1c(=O)c2[nH]cnc2n(C)c1=O", "note": "[1,3-Dimethyl Xanthine (Theophylline), 1,3-Dimethyl Xanthine]", "values": [
      {"measurement": "% Cross-Reaction AAMU-Ab", "setting": "AAMU-Ab", "value": 0, "unit": "%"},
      {"measurement": "% Cross-Reaction 1X-Ab", "setting": "1X-Ab", "value": 0.2, "unit": "%"}
    ]},
    {"smiles": "Cn1c(=O)[nH]c2ncn(C)c2c1=O", "note": "[1,7-Dimethyl Xanthine (Paraxanthine), 1,7-Dimethyl Xanthine]", "values": [
      {"measurement": "% Cross-Reaction AAMU-Ab", "setting": "AAMU-Ab", "value": 0, "unit": "%"},
      {"measurement": "% Cross-Reaction 1X-Ab", "setting": "1X-Ab", "value": 0.5, "unit": "%"}
    ]},
    {"smiles": "Cn1c(=O)[nH]c2[nH]c(=O)n(C)c2c1=O", "note": "[1,7-Dimethyluric acid]", "values": [
      {"measurement": "% Cross-Reaction AAMU-Ab", "setting": "AAMU-Ab", "value": 0, "unit": "%"},
      {"measurement": "% Cross-Reaction 1X-Ab", "setting": "1X-Ab", "value": 0, "unit": "%"}
    ]},
    {"smiles": "Cn1c(=O)[nH]c2nc[nH]c2c1=O", "note": "[1-Methyl Xanthine (1X), 1-Methyl Xanthine]", "values": [
      {"measurement": "% Cross-Reaction AAMU-Ab", "setting": "AAMU-Ab", "value": 0, "unit": "%"},
      {"measurement": "% Cross-Reaction 1X-Ab", "setting": "1X-Ab", "value": 100, "unit": "%"}
    ]},
    {"smiles": "Cn1c(=O)[nH]c2[nH]c(=O)[nH]c2c1=O", "note": "[1-Methyluric acid]", "values": [
      {"measurement": "% Cross-Reaction AAMU-Ab", "setting": "AAMU-Ab", "value": 0, "unit": "%"},
      {"measurement": "% Cross-Reaction 1X-Ab", "setting": "1X-Ab", "value": 11, "unit": "%"}
    ]},
    {"smiles": "Cn1cnc2c1c(=O)[nH]c(=O)n2C", "note": "[3,7-Dimethyl Xanthine (Theobromine), 3,7-Dimethyl Xanthine]", "values": [
      {"measurement": "% Cross-Reaction AAMU-Ab", "setting": "AAMU-Ab", "value": 0, "unit": "%"},
      {"measurement": "% Cross-Reaction 1X-Ab", "setting": "1X-Ab", "value": 0, "unit": "%"}
    ]},
    {"smiles": "Cn1c(=O)[nH]c(=O)c2[nH]cnc21", "note": "[3-Methyl Xanthine]", "values": [
      {"measurement": "% Cross-Reaction AAMU-Ab", "setting": "AAMU-Ab", "value": 0, "unit": "%"},
      {"measurement": "% Cross-Reaction 1X-Ab", "setting": "1X-Ab", "value": 0, "unit": "%"}
    ]},
    {"smiles": "CC(=O)Nc1c(N)n(C)c(=O)n(C)c1=O", "note": "[5-Acetamino-6-amino-1,3-dimethyluracil]", "values": [
      {"measurement": "% Cross-Reaction AAMU-Ab", "setting": "AAMU-Ab", "value": 0, "unit": "%"},
      {"measurement": "% Cross-Reaction 1X-Ab", "setting": "1X-Ab", "value": 0, "unit": "%"}
    ]},
    {"smiles": "CC(=O)Nc1c(N)n(C)c(=O)[nH]c1=O", "note": "[5-Acetamino-6-amino-1-methyluracil]", "values": [
      {"measurement": "% Cross-Reaction AAMU-Ab", "setting": "AAMU-Ab", "value": 100, "unit": "%"},
      {"measurement": "% Cross-Reaction 1X-Ab", "setting": "1X-Ab", "value": 0, "unit": "%"}
    ]},
    {"smiles": "CC(=O)Nc1c(N)[nH]c(=O)[nH]c1=O", "note": "[5-Acetamino-6-amino-uracil]", "values": [
      {"measurement": "% Cross-Reaction AAMU-Ab", "setting": "AAMU-Ab", "value": 0.6, "unit": "%"},
      {"measurement": "% Cross-Reaction 1X-Ab", "setting": "1X-Ab", "value": 0, "unit": "%"}
    ]},
    {"smiles": "Cn1cnc2[nH]c(=O)[nH]c(=O)c21", "note": "[7-Methyl Xanthine]", "values": [
      {"measurement": "% Cross-Reaction AAMU-Ab", "setting": "AAMU-Ab", "value": 0, "unit": "%"},
      {"measurement": "% Cross-Reaction 1X-Ab", "setting": "1X-Ab", "value": 0, "unit": "%"}
    ]},
    {"smiles": "Cc1nc2[nH]c(=O)[nH]c(=O)c2[nH]1", "note": "[8-Methyl Xanthine]", "values": [
      {"measurement": "% Cross-Reaction AAMU-Ab", "setting": "AAMU-Ab", "value": 0, "unit": "%"},
      {"measurement": "% Cross-Reaction 1X-Ab", "setting": "1X-Ab", "value": 0, "unit": "%"}
    ]},
    {"smiles": "Nc1nc2nc[nH]c2c(=O)[nH]1", "note": "[Guanine]", "values": [
      {"measurement": "% Cross-Reaction AAMU-Ab", "setting": "AAMU-Ab", "value": 0, "unit": "%"},
      {"measurement": "% Cross-Reaction 1X-Ab", "setting": "1X-Ab", "value": 0, "unit": "%"}
    ]},
    {"smiles": "O=c1[nH]cnc2nc[nH]c12", "note": "[Hypoxanthine]", "values": [
      {"measurement": "% Cross-Reaction AAMU-Ab", "setting": "AAMU-Ab", "value": 0, "unit": "%"},
      {"measurement": "% Cross-Reaction 1X-Ab", "setting": "1X-Ab", "value": 0, "unit": "%"}
    ]},
    {"smiles": "O=c1cc[nH]c(=O)[nH]1", "note": "[Uracil]", "values": [
      {"measurement": "% Cross-Reaction AAMU-Ab", "setting": "AAMU-Ab", "value": 0, "unit": "%"},
      {"measurement": "% Cross-Reaction 1X-Ab", "setting": "1X-Ab", "value": 0, "unit": "%"}
    ]},
    {"smiles": "O=c1[nH]c(=O)c2[nH]c(=O)[nH]c2[nH]1", "note": "[Uric acid]", "values": [
      {"measurement": "% Cross-Reaction AAMU-Ab", "setting": "AAMU-Ab", "value": 0, "unit": "%"},
      {"measurement": "% Cross-Reaction 1X-Ab", "setting": "1X-Ab", "value": 0, "unit": "%"}
    ]},
    {"smiles": "O=c1[nH]c(=O)c2[nH]cnc2[nH]1", "note": "[Xanthine]", "values": [
      {"measurement": "% Cross-Reaction AAMU-Ab", "setting": "AAMU-Ab", "value": "0^a %"},
      {"measurement": "% Cross-Reaction 1X-Ab", "setting": "1X-Ab", "value": 0, "unit": "%"}
    ]},
    {"smiles": "Nc1ccc(S(=O)(=O)c2ccc(N)cc2)cc1", "note": "[dapsone]", "values": [
      {"measurement": "adverse reactions to dapsone", "setting": "[1]; fast acetylators", "value": 17, "unit": "%"},
      {"measurement": "adverse reactions to dapsone", "setting": "[1]; slow acetylators", "value": 46, "unit": "%"}
    ]}
  ]
}
